System: locally advanced or metastatic non-small cell lung cancer (NSCLC)
Assay: OAK phase III clinical trial (NCT02008227): atezolizumab vs docetaxel, outcomes by bTMB score and PD-L1 IHC
Format: in vivo, human
Protocol: A blood-based assay was used to evaluate the association between clinical response to treatment with atezolizumab (MPDL3280A) and blood tumor mutational burden (bTMB) score in patients with non-small cell lung cancer (NSCLC) enrolled in two clinical trials, a phase II clinical trial, POPLAR (Clinical Trial ID No.: NCT01903993), and a phase III clinical trial, OAK (Clinical Trial ID No.: NCT02008227), in which atezolizumab was administered as a monotherapy.
Pre-treatment blood samples from patients with NSCLC who were enrolled in the POPLAR and/or the OAK studies, in which atezolizumab was administered as a monotherapy, were evaluated for bTMB score and/or maximum somatic allele frequency (MSAF).
The OAK (Clinical Trial ID No.: NCT02008227) patient population evaluated for bTMB score consisted of 583 patients. Patients were eligible for enrollment in the OAK study if they had locally advanced or metastatic (e.g., stage IIIB, stage IV, or recurrent) NSCLC; disease progression during or following treatment with a prior platinum-containing regimen for locally advanced, unresectable/inoperable, or metastatic NSCLC, or disease recurrence within 6 months of treatment with a platinum-based adjuvant/neoadjuvant regimen; measurable disease, as defined by RECIST v1.1; and an ECOG performance status of 0 or 1. Participants were randomized to receive either atezolizumab at a dose of 1200 mg intravenously every three weeks or docetaxel 75 mg per square meter (mg/m^2) intravenously every three weeks. Treatment with atezolizumab could be continued as long as participants were experiencing clinical benefit, i.e., in the absence of unacceptable toxicity or symptomatic deterioration attributed to disease progression.
Analysis of bTMB was performed retrospectively. Progression-free survival (PFS) was defined as the time between date of randomization and date of first documented disease progression as assessed by the investigator using RECIST v.1.1 or death from any cause, whichever occurred first. Overall survival (OS) was defined as the time between the date of randomization until death due to any cause. Treatment arms were compared for OS and PFS individually using a univariate Cox regression model without stratification in the biomarker evaluable-population (BEP) and their subgroups or using a stratified (by randomization stratification factors) Cox model in the ITT population. No multiplicity correction was applied to p-values or confidence intervals (CI). Kaplan-Meier methodology was used to estimate median OS and PFS and construct survival curves.
In the OAK ITT population (N=850), 797 samples were available for analysis. Of these samples, 13 were removed for sample contamination >1%; 42 were removed for median exon coverage <800×; and 100 were removed for low MSAF<1%.
The OAK BEP (N=642) included 59 patients with EGFR mutation or ALK rearrangement, and 583 without known alterations.
To identify somatic mutations and calculate a bTMB score, whole blood samples obtained from each patient (collected in EDTA or Streck tubes) were processed through a series of spins to isolate plasma, from which cell free DNA (cfDNA) was extracted for sequencing analysis. Specifically, at least 20 ng purified cfDNA was used for library construction. Next-generation sequencing libraries using fragment barcodes and hybrid capture were constructed to analyze and sequence a pre-determined set of 394 genes that covered approximately 1.125 Mb of the exome. Specifically, purified libraries were hybrid captured using a 394-gene bait set and then further purified, pooled and loaded on an ILLUMINA® HISEQ® 4000 sequencing system. Sequenced libraries were aligned and sorted. In order to accurately call variants at low allele frequencies and minimize artifacts from sequencing, PCR, or DNA damage-related errors, sequenced libraries were processed by a cfDNA computational pipeline that corrected errors via the use of fragment barcodes. […]

[1] = OAK BEP with valid bTMB and PD-L1 IHC results, bTMB ≥16, n=156
[2] = OAK, bTMB score subgroup ≥10 (251 patients), atezolizumab vs docetaxel
[3] = OAK, bTMB score subgroup ≥16 (158 patients), atezolizumab vs docetaxel
[4] = OAK, bTMB score subgroup ≥20 (105 patients), atezolizumab vs docetaxel

atezolizumab
OS HR (95% CI) (OAK BEP with valid bTMB and PD-L1 IHC results, TC3 or IC3, n=103): 0.44 (0.27-0.71)
OS HR (95% CI) [1]: 0.64 (0.44-0.93)
PFS HR (95% CI) [1]: 0.64 (0.46, 0.91)
OS HR (95% CI) (OAK, BEP (n = 583), atezolizumab vs docetaxel): 0.64
PFS HR (95% CI) (OAK, IHC− (complementary to TC1/2/3) and bTMB ≥16, n=93): 0.78
PFS HR (95% CI) (OAK, IHC− (complementary to TC1/2/3 or IC1/2/3) and bTMB ≥16, n=53): 0.68
PFS HR (95% CI) (OAK, IHC− (complementary to TC2/3) and bTMB ≥16, n=110): 0.69
PFS HR (95% CI) (OAK, IHC− (complementary to TC2/3 or IC2/3) and bTMB ≥16, n=94): 0.65
PFS HR (95% CI) (OAK, IHC− (complementary to TC3 or IC3) and bTMB ≥16, n=126): 0.70
OS HR (95% CI) (OAK, ITT (n = 850), atezolizumab vs docetaxel): 0.73
PFS HR (95% CI) (OAK, PD-L1 IHC TC0 and IC0 (bTMB evaluable), n=250): 0.95
PFS HR (95% CI) (OAK, PD-L1 IHC TC1/2/3, IHC+ (bTMB evaluable), n=192): 0.65
PFS HR (95% CI) (OAK, PD-L1 IHC TC1/2/3 or IC1/2/3, IHC+ (bTMB evaluable), n=328): 0.83
PFS HR (95% CI) (OAK, PD-L1 IHC TC2/3, IHC+ (bTMB evaluable), n=150): 0.65
PFS HR (95% CI) (OAK, PD-L1 IHC TC2/3 or IC2/3, IHC+ (bTMB evaluable), n=200): 0.71
PFS HR (95% CI) (OAK, TC0 and IC0 and bTMB <16, n=197): 1.03
PFS HR (95% CI) (OAK, TC0 and IC0 and bTMB ≥16, n=53): 0.68
PFS HR (95% CI) (OAK, TC1/2/3 and bTMB <16, n=129): 0.72
PFS HR (95% CI) (OAK, TC1/2/3 and bTMB ≥16, n=63): 0.55
PFS HR (95% CI) (OAK, TC1/2/3 or IC1/2/3 and bTMB <16, n=225): 0.94
PFS HR (95% CI) (OAK, TC1/2/3 or IC1/2/3 and bTMB ≥16, n=103): 0.65
PFS HR (95% CI) (OAK, TC2/3 and bTMB <16, n=106): 0.70
PFS HR (95% CI) (OAK, TC2/3 and bTMB ≥16, n=44): 0.55
PFS HR (95% CI) (OAK, TC2/3 or IC2/3 and bTMB <16, n=140): 0.73
PFS HR (95% CI) (OAK, TC2/3 or IC2/3 and bTMB ≥16, n=60): 0.65
PFS HR (95% CI) (OAK, TC3 or IC3 and bTMB <16, n=73): 0.71
OS HR [2]: 0.69
PFS HR [2]: 0.73
OS HR [3]: 0.64
PFS HR [3]: 0.65
OS HR [4]: 0.65
PFS HR [4]: 0.61
median OS (OAK, bTMB≥16, per treatment arm): 13.5 months
best overall response rate (OAK, bTMB≥16 patients, per treatment arm): 21%
PFS HR (OAK, reference bTMB score of 14 (Dx+, n=188), atezolizumab vs docetaxel): 0.68
PFS HR (OAK, reference bTMB score of 18 (Dx+, n=132), atezolizumab vs docetaxel): 0.66
